In patent US20100184786A1, “Polar Quinazolines” (Wyeth LLC, priority 2008, published 2010):

Tests used:
human LXRβ = target: T1, human LXRβ (Homo sapiens, UniProt P55055); test: Ligand-binding test procedure for human LXRβ (3H T0901317 tracer, flash plates); conditions: competition with 3H T0901317; read-out: hLXRb binding IC50
T1 construct: biotin (biotinylated); made in house; host or cells: E. coli
T1 sequence (P55055 1-460): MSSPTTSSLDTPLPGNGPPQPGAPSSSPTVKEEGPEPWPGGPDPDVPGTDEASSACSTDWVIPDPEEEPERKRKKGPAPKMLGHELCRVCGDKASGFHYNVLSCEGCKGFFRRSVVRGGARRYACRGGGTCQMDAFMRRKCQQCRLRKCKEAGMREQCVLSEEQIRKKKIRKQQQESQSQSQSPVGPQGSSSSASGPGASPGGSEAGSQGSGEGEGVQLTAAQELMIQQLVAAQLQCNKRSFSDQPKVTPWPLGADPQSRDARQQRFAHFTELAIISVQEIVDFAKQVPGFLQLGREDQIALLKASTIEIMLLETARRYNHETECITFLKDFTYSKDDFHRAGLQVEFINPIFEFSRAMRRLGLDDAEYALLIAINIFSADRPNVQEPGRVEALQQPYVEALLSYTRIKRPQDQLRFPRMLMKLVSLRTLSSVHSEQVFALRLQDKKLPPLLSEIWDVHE
Description: I. Ligand-Binding Test Procedure for Human LXRβ.
• Buffer: 100 mM KCl, 100 mM TRIS (pH 7.4 at +4° C.), 8.6% glycerol, 0.1 mM PMSF*, 2 mM MTG*, 0.2% CHAPS (* not used in wash buffer) • Tracer: ^3H T0901317 • Receptor source: E. coli extracted from cells expressing biotinylated hLXRβ. Extract was made in a similar buffer as above, but with 50 mM TRIS.
• Washed streptavidin and coated flash plates with wash buffer. • Diluted receptor extract to give Bmax˜4000 cpm and add to the wells. • Wrapped the plates in aluminum foil and stored them at +4° C. overnight.
(§1) • Made a dilution series in DMSO of the test ligands. • Made a 5 nM solution of the radioactive tracer in buffer. • Mixed 2500 diluted tracer with 50 of the test ligand from each concentration of the dilution series. • Washed the receptor-coated flash plates. • Added 2000 per well of the ligand/radiolabel mixture to the receptor-coated flash plates. • Wrapped the plates in aluminum foil and incubate at +4° C. over night.
• Aspirated wells, and washed the flashed plates. Sealed the plate. • Measured the remaining radioactivity in the plate.

human LXRα = target: T2, human LXRα (Homo sapiens, UniProt Q13133); test: Ligand-binding test procedure for human LXRα (3H T0901317 tracer, flash plates); conditions: competition with 3H T0901317; read-out: hLXRa binding IC50
T2 construct: biotin (biotinylated); made in house; host or cells: E. coli
T2 sequence (Q13133 1-447): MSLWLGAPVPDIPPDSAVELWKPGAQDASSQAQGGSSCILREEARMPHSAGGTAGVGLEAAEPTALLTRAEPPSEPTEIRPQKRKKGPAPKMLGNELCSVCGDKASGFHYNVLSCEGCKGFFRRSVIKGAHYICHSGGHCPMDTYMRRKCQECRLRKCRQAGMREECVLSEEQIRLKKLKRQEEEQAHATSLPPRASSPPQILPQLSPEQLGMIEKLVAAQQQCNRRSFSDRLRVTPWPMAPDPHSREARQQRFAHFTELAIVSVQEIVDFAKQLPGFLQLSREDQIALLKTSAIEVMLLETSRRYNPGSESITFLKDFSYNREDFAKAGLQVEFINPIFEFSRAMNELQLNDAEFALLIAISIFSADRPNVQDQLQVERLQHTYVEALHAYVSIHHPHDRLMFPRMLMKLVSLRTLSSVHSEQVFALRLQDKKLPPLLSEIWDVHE
Description: II. Ligand-Binding Test Procedure for Human LXRa.
• Buffer: 100 mM KCl, 100 mM TRIS (pH 7.4 at +4° C.), 8.6% glycerol, 0.1 mM PMSF*, 2 mM MTG*, 0.2% CHAPS (* not used in wash buffer) • Tracer: ^3H T0901317 • Receptor source: E. coli extract from cells expressing biotinylated hLXRα. Extract was made in a similar buffer as above, but with 50 mM TRIS.
• Washed streptavidin and coated flash plates with wash buffer. • Diluted receptor extract to give Bmax˜4000 cpm and add to the wells. • Wrapped the plates in aluminum foil and stored them at +4° C. over night.
as §1
• Aspirated wells, and wash the flashed plates. Sealed the plate. • Measured the remaining radioactivity in the plate.

| Compound | IC50 (human LXRβ) [µM] | IC50 (human LXRα) [µM] |
| --- | --- | --- |
| CS(=O)(=O)c1cc(Oc2ccc(Cl)c(-c3ncnc4c(Cl)cccc34)c2)ccc1C#N [Example 1, 4-[4-chloro-3-(8-chloroquinazolin-4-yl)phenoxy]-2-(methylsulfonyl)benzonitrile] | 0.329 | 3.13 |
| CS(=O)(=O)c1cc(Oc2ccc(Cl)c(-c3ncnc4c(C(F)(F)F)cccc34)c2)ccc1C#N [Example 2, 4-{4-chloro-3-[8-(trifluoromethyl)quinazolin-4-yl]phenoxy}-2-(methylsulfonyl)benzonitrile] | 0.152 | 1.06 |
| CS(=O)(=O)c1cc(Oc2ccc(Cl)c(-c3ncnc4c(Cl)cccc34)c2)ccc1C(N)=O [Example 6, 4-[4-chloro-3-(8-chloroquinazolin-4-yl)phenoxy]-2-(methylsulfonyl)benzamide] | 1.26 | 3.84 |
| CS(=O)(=O)c1cc(Oc2ccc(Cl)c(-c3ncnc4c(C(F)(F)F)cccc34)c2)ccc1C(N)=O [Example 7, 4-{4-chloro-3-[8-(trifluoromethyl)quinazolin-4-yl]phenoxy}-2-(methylsulfonyl)benzamide] | 0.288 | 0.986 |
| N#CCS(=O)(=O)c1cccc(Oc2ccc(F)c(-c3ncnc4c(Cl)cccc34)c2)c1 [Example 10, ({3-[3-(8-chloroquinazolin-4-yl)-4-fluorophenoxy]phenyl}sulfonyl)acetonitrile] | 0.286 | 1.53 |
| NS(=O)(=O)c1cccc(Oc2ccc(F)c(-c3ncnc4c(Cl)cccc34)c2)c1 [Example 20, 3-[3-(8-chloroquinazolin-4-yl)-4-fluorophenoxy]benzenesulfonamide] | 0.336 | 2.88 |
| NC(=O)CCCS(=O)(=O)c1cccc(Oc2ccc(F)c(-c3ncnc4c(C(F)(F)F)cccc34)c2)c1 [Example 26, 4-[(3-{4-fluoro-3-[8-(trifluoromethyl)quinazolin-4-yl]phenoxy}phenyl)sulfonyl]butanamide] | 0.184 | 2.48 |
| O=C(O)CCCS(=O)(=O)c1cccc(Oc2ccc(F)c(-c3ncnc4c(C(F)(F)F)cccc34)c2)c1 [Example 27, 4-[(3-{4-fluoro-3-[8-(trifluoromethyl)quinazolin-4-yl]phenoxy}phenyl)sulfonyl]butanoic acid] | 1.2 | 16.7 |
| CS(=O)(=O)NCCCS(=O)(=O)c1cccc(Oc2ccc(F)c(-c3ncnc4c(C(F)(F)F)cccc34)c2)c1 [Example 29, N-{3-[(3-{4-fluoro-3-[8-(trifluoromethyl)quinazolin-4-yl]phenoxy}phenyl)sulfonyl]propyl}-methanesulfonamide] | 0.157 | 1.33 |
| NC(=O)CCCCS(=O)(=O)c1cccc(Oc2ccc(F)c(-c3ncnc4c(C(F)(F)F)cccc34)c2)c1 [Example 33, 5-[(3-{4-fluoro-3-[8-(trifluoromethyl)quinazolin-4-yl]phenoxy}phenyl)sulfonyl]pentanamide] | 0.13 | 1.35 |
| O=C(O)CCCCS(=O)(=O)c1cccc(Oc2ccc(F)c(-c3ncnc4c(C(F)(F)F)cccc34)c2)c1 [Example 34, 5-[(3-{4-fluoro-3-[8-(trifluoromethyl)quinazolin-4-yl]phenoxy}phenyl)sulfonyl]pentanoic acid] | 1.43 | 11.9 |
| NCCCCS(=O)(=O)c1cccc(Oc2ccc(F)c(-c3ncnc4c(C(F)(F)F)cccc34)c2)c1 [Example 35, 4-[(3-{4-fluoro-3-[8-(trifluoromethyl)quinazolin-4-yl]phenoxy}phenyl)sulfonyl]butan-1-amine] | 0.584 | 9.42 |
| CS(=O)(=O)NCCCCS(=O)(=O)c1cccc(Oc2ccc(F)c(-c3ncnc4c(C(F)(F)F)cccc34)c2)c1 [Example 36, N-{4-[(3-{4-fluoro-3-[8-(trifluoromethyl)quinazolin-4-yl]phenoxy}phenyl)sulfonyl]butyl]methanesulfonamide] | 0.221 | 2.73 |
| CS(=O)(=O)c1cc(Oc2ccc(F)c(-c3ncnc4c(C(F)(F)F)cccc34)c2)ccc1C#N [Example 38, 4-{4-fluoro-3-[8-(trifluoromethyl)quinazolin-4-yl]phenoxy}-2-(methylsulfonyl)benzonitrile] | 0.506 | 4.1 |
| CS(=O)(=O)c1cc(Oc2ccc(F)c(-c3ncnc4c(C(F)(F)F)cccc34)c2)ccc1C(N)=O [Example 39, 4-{4-fluoro-3-[8-(trifluoromethyl)quinazolin-4-yl]phenoxy}-2-(methylsulfonyl)benzamide] | 1.21 | 4.37 |
| CS(=O)(=O)c1cc(Oc2ccc(F)c(-c3ncnc4c(Cl)cccc34)c2)ccc1C#N [Example 41, 4-[3-(8-chloroquinazolin-4-yl)-4-fluorophenoxy]-2-(methylsulfonyl)benzonitrile] | 1.06 | – |
| CS(=O)(=O)c1cc(Oc2ccc(F)c(-c3ncnc4c(Cl)cccc34)c2)ccc1C(N)=O [Example 42, 4-[3-(8-chloroquinazolin-4-yl)-4-fluorophenoxy]-2-(methylsulfonyl)benzamide] | 4.9 | 10.9 |
| CNCCCCS(=O)(=O)c1cccc(Oc2ccc(F)c(-c3ncnc4c(Cl)cccc34)c2)c1 [Example 43, 4-({3-[3-(8-chloroquinazolin-4-yl)-4-fluorophenoxy]phenyl}sulfonyl)-N-methylbutan-1-amine] | 3.59 | – |
| CNCCCS(=O)(=O)c1cccc(Oc2ccc(F)c(-c3ncnc4c(Cl)cccc34)c2)c1 [Example 44, 3-({3-[3-(8-chloroquinazolin-4-yl)-4-fluorophenoxy]phenyl}sulfonyl)-N-methylpropan-1-amine] | 0.965 | 7.31 |
| NCCCCS(=O)(=O)c1cccc(Oc2ccc(F)c(-c3ncnc4c(Cl)cccc34)c2)c1 [Example 45, 4-({3-[3-(8-chloroquinazolin-4-yl)-4-fluorophenoxy]phenyl}sulfonyl)butan-1-amine] | 1.88 | 11.5 |
| NCCCS(=O)(=O)c1cccc(Oc2ccc(F)c(-c3ncnc4c(Cl)cccc34)c2)c1 [Example 46, 3-({3-[3-(8-chloroquinazolin-4-yl)-4-fluorophenoxy]phenyl}sulfonyl)propan-1-amine] | 0.296 | 8.18 |
| CN(CCCCS(=O)(=O)c1cccc(Oc2ccc(F)c(-c3ncnc4c(Cl)cccc34)c2)c1)S(C)(=O)=O [Example 48, N-[4-({3-[3-(8-chloroquinazolin-4-yl)-4-fluorophenoxy]phenyl}sulfonyl)butyl]-N-methylmethanesulfonamide] | 1.02 | – |
| CN(CCCS(=O)(=O)c1cccc(Oc2ccc(F)c(-c3ncnc4c(Cl)cccc34)c2)c1)S(C)(=O)=O [Example 49, N-[3-({3-[3-(8-chloroquinazolin-4-yl)-4-fluorophenoxy]phenyl}sulfonyl)propyl]-N-methylmethanesulfonamide] | 1.99 | – |
| O=C(O)CCCCS(=O)(=O)c1cccc(Oc2ccc(F)c(-c3ncnc4c(Cl)cccc34)c2)c1 [Example 56, 5-({3-[3-(8-chloroquinazolin-4-yl)-4-fluorophenoxy]phenyl}sulfonyl)pentanoic acid] | 3.43 | – |
| O=C(O)CCCS(=O)(=O)c1cccc(Oc2ccc(F)c(-c3ncnc4c(Cl)cccc34)c2)c1 [Example 57, 4-({3-[3-(8-chloroquinazolin-4-yl)-4-fluorophenoxy]phenyl}sulfonyl)butanoic acid] | 4.21 | – |
